Like-named read-outs stand apart in the source and are kept apart here.
Key:
Assay in all cases: cells
[1] = test system: HT29, a human colorectal adenocarcinoma cell line; conditions: HT-29, 72 h, read-out: Cell viability (%)
[2] = test system: HT29, a human colorectal adenocarcinoma cell line; conditions: 72 h, read-out: Cell viability (%)
[3] = test system: HT29, a human colorectal adenocarcinoma cell line; conditions: 72 h, read-out: Cell viability (%); remark: listed apart in the source

In the case of O=c1[nH]cc(F)c(=O)[nH]1 [5-FU, 5-fluorouracil], the viability at 1 µM [1] is reported as 99.3 ± 21%, the viability at 10 µM [1] is reported as 75.3 ± 12.4% and the viability at 100 µM [1] is reported as 54.3 ± 10.2%. For the same molecule, the viability at 1000 µM [1] was 40.3 ± 8.34%, the viability at 1 µM [2] was 100 ± 13.2% and the viability at 1 µM [3] was 100 ± 31.2%.

From US20250271418A1, “ANTICANCER DRUG ASSESSMENT METHODS AND ANTICANCER DRUG ASSESSMENT KITS” (TOPPAN HOLDINGS INC., priority 2022, published 2025)
